Laboratory results from US20240360178A1, “MACROCYCLIC IMMUNOMODULATORS” (Bristol-Myers Squibb Company, priority 2021, published 2024).
Positions of bridges follow the written chain, without caps; N, C: chain ends. Non-standard residues stand in square brackets, D forms with d. Residues, ends and D or L forms follow the SMILES beside them. *: point of attachment. Phe(4-COOH) = N[C@@H](Cc1ccc(C(=O)O)cc1)C(=O)O; Bip = N[C@@H](Cc1ccc(-c2ccccc2)cc1)C(=O)O; NMeF = CN[C@@H](Cc1ccccc1)C(=O)O; 3Pal = N[C@@H](Cc1cccnc1)C(=O)O; Carboxymethyl = O=C(O)C*; NMeA = CN[C@@H](C)C(=O)O; Orn = NCCC[C@H](N)C(=O)O; Dab = NCC[C@H](N)C(=O)O

target: T1, human PD-1 (Jurkat-PD-1 cells) / PE-labeled human PD-L1-Ig (Homo sapiens, UniProt Q15116); experiment: Jurkat-PD-1 Cell Binding High-Content Screening Assay (CBA); Jurkat hPD1-PDL1 assay; settings: Jurkat cell line over-expressing human PD-1; PE-labeled PD-L1-Ig 20 nM final; compound incubated 2 hours at 37° C.; read-out: Jurkat HPD1-PDL1 IC50
T1 construct: expressed in transfected cells; host or cells: Jurkat cell line over-expressing human PD-1
T1 sequence (Q15116 25-288): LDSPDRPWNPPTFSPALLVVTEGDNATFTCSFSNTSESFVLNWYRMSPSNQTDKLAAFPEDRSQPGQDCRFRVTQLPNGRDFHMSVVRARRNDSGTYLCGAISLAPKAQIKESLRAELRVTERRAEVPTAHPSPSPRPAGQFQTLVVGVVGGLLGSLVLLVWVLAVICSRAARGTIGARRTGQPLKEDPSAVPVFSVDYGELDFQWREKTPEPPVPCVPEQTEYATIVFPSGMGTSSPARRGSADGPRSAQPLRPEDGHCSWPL
How it was run: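 Jurkat cells overexpressing human PD-1 (8×10^3 per well, DMEM with 10% FCS) were preincubated with compound for 2 hours at 37° C. PE-labeled human PD-L1-Ig was then added at 20 nM final. Binding was quantified by high-content imaging.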

SMILES	IC50 [nM]
CC(C)C[C@@H]1NC(=O)[C@H](CCCNC(=N)N)NC(=O)[C@H](Cc2ccccc2)N(C)C(=O)[C@H](C)N(C)C(=O)[C@H](CCCNC(=N)N)NC(=O)[C@H](Cc2ccc(-c3ccccc3)cc2)NC(=O)[C@H](C(C)C)NC(=O)[C@H](Cc2c[nH]c3ccccc23)NC(=O)[C@H](CC(=O)O)NC(=O)[C@H](Cc2ccc(O)cc2)NC(=O)[C@H](CCC(N)=O)NC(=O)CSC[C@@H](C(=O)N[C@@H](C)C(N)=O)NC(=O)[C@H](CO)NC(=O)[C@H](C(C)C)NC1=O [Example 1296] ({CH2CO}-QYDWV[Bip]R[NMeA][NMeF]RLVSCA-NH2; thioether N-14)	140
CC(C)C[C@@H]1NC(=O)[C@H](CCCNC(=N)N)NC(=O)[C@H](Cc2ccccc2)N(C)C(=O)[C@H](C)N(C)C(=O)[C@H](CCCNC(=N)N)NC(=O)[C@H](Cc2ccc(-c3ccccc3)cc2)NC(=O)[C@H](C(C)C)NC(=O)[C@H](Cc2c[nH]c3ccccc23)NC(=O)[C@H](CC(=O)O)NC(=O)[C@H](Cc2ccc(O)cc2)NC(=O)[C@H](Cc2cnc[nH]2)NC(=O)CSC[C@@H](C(=O)N[C@@H](C)C(N)=O)NC(=O)[C@H](CO)NC(=O)[C@H](C(C)C)NC1=O [Example 1302] ({CH2CO}-HYDWV[Bip]R[NMeA][NMeF]RLVSCA-NH2; thioether N-14)	350
CC(C)C[C@@H]1NC(=O)[C@H](CCN)NC(=O)[C@H](Cc2ccccc2)N(C)C(=O)[C@H](C)N(C)C(=O)[C@H](CCCNC(=N)N)NC(=O)[C@H](Cc2ccc(-c3ccccc3)cc2)NC(=O)[C@H](C(C)C)NC(=O)[C@H](Cc2c[nH]c3ccccc23)NC(=O)[C@H](CC(=O)O)NC(=O)[C@H](Cc2ccc(O)cc2)NC(=O)[C@H](CC(N)=O)NC(=O)CSC[C@@H](C(=O)N[C@@H](C)C(N)=O)NC(=O)[C@H](CO)NC(=O)[C@H](C(C)C)NC1=O [Example 1303] ({CH2CO}-NYDWV[Bip]R[NMeA][NMeF][Dab]LVSCA-NH2; thioether N-14)	70
CC(C)C[C@@H]1NC(=O)[C@H](CCN)NC(=O)[C@H](Cc2ccccc2)N(C)C(=O)[C@H](C)N(C)C(=O)[C@H](CCCNC(=N)N)NC(=O)[C@H](Cc2ccc(-c3ccccc3)cc2)NC(=O)[C@H](C(C)C)NC(=O)[C@H](Cc2c[nH]c3ccccc23)NC(=O)[C@H](CC(=O)O)NC(=O)[C@H](Cc2ccc(O)cc2)NC(=O)[C@H](Cc2ccccc2)NC(=O)CSC[C@@H](C(=O)N[C@@H](C)C(N)=O)NC(=O)[C@H](CO)NC(=O)[C@H](C(C)C)NC1=O [Example 1304] ({CH2CO}-FYDWV[Bip]R[NMeA][NMeF][Dab]LVSCA-NH2; thioether N-14)	60
CC(C)C[C@@H]1NC(=O)CSC[C@@H](C(=O)N[C@@H](C)C(N)=O)NC(=O)[C@H](CO)NC(=O)[C@H](C(C)C)NC(=O)[C@H](CC(C)C)NC(=O)[C@H](CCN)NC(=O)[C@H](Cc2ccccc2)N(C)C(=O)[C@H](C)N(C)C(=O)[C@H](CCCNC(=N)N)NC(=O)[C@H](Cc2ccc(-c3ccccc3)cc2)NC(=O)[C@H](C(C)C)NC(=O)[C@H](Cc2c[nH]c3ccccc23)NC(=O)[C@H](CC(=O)O)NC(=O)[C@H](Cc2ccc(O)cc2)NC1=O [Example 1305] ({CH2CO}-LYDWV[Bip]R[NMeA][NMeF][Dab]LVSCA-NH2; thioether N-14)	60
CC(C)C[C@@H]1NC(=O)[C@H](CCN)NC(=O)[C@H](Cc2ccccc2)N(C)C(=O)[C@H](C)N(C)C(=O)[C@H](CCCNC(=N)N)NC(=O)[C@H](Cc2ccc(-c3ccccc3)cc2)NC(=O)[C@H](C(C)C)NC(=O)[C@H](Cc2c[nH]c3ccccc23)NC(=O)[C@H](CC(=O)O)NC(=O)[C@H](Cc2ccc(O)cc2)NC(=O)[C@H](Cc2cccnc2)NC(=O)CSC[C@@H](C(=O)N[C@@H](C)C(N)=O)NC(=O)[C@H](CO)NC(=O)[C@H](C(C)C)NC1=O [Example 1306] ({CH2CO}-[3Pal]YDWV[Bip]R[NMeA][NMeF][Dab]LVSCA-NH2; thioether N-14)	460

Other lines, results leading:

IC50 [nM]	SMILES
140	CC(C)C[C@@H]1NC(=O)[C@H](CCCNC(=N)N)NC(=O)[C@H](Cc2ccccc2)N(C)C(=O)[C@H](C)N(C)C(=O)[C@H](CCCN)NC(=O)[C@H](Cc2ccc(-c3ccccc3)cc2)NC(=O)[C@H](C(C)C)NC(=O)[C@H](Cc2c[nH]c3ccccc23)NC(=O)[C@H](CC(=O)O)NC(=O)[C@H](Cc2ccc(O)cc2)NC(=O)[C@H](CCC(N)=O)NC(=O)CSC[C@@H](C(=O)NCC(N)=O)NC(=O)[C@H](CO)NC(=O)[C@H](C(C)C)NC1=O [Example 1294] ({CH2CO}-QYDWV[Bip][Orn][NMeA][NMeF]RLVSCG-NH2; thioether N-14)
210	CC(C)C[C@@H]1NC(=O)CSC[C@@H](C(=O)NCC(N)=O)NC(=O)[C@H](CO)NC(=O)[C@H](C(C)C)NC(=O)[C@H](CC(C)C)NC(=O)[C@H](CCCNC(=N)N)NC(=O)[C@H](Cc2ccccc2)N(C)C(=O)[C@H](C)N(C)C(=O)[C@H](CCCNC(=N)N)NC(=O)[C@H](Cc2ccc(-c3ccccc3)cc2)NC(=O)[C@H](C(C)C)NC(=O)[C@H](Cc2c[nH]c3ccccc23)NC(=O)[C@H](CC(=O)O)NC(=O)[C@H](Cc2ccc(C(=O)O)cc2)NC1=O [Example 1295] ({CH2CO}-L[Phe(4-COOH)]DWV[Bip]R[NMeA][NMeF]RLVSCG-NH2; thioether N-14)
420	CC(C)C[C@@H]1NC(=O)[C@H](CCCNC(=N)N)NC(=O)[C@H](Cc2ccccc2)N(C)C(=O)[C@H](C)N(C)C(=O)[C@H](CCCNC(=N)N)NC(=O)[C@H](Cc2ccc(-c3ccccc3)cc2)NC(=O)[C@H](C(C)C)NC(=O)[C@H](Cc2c[nH]c3ccccc23)NC(=O)[C@H](CC(=O)O)NC(=O)[C@H](Cc2ccc(C(=O)O)cc2)NC(=O)[C@H](CCC(N)=O)NC(=O)CSC[C@@H](C(=O)NCC(N)=O)NC(=O)[C@H](CO)NC(=O)[C@H](C(C)C)NC1=O [Example 1297] ({CH2CO}-Q[Phe(4-COOH)]DWV[Bip]R[NMeA][NMeF]RLVSCG-NH2; thioether N-14)
120	CC(C)C[C@@H]1NC(=O)[C@H](CCCNC(=N)N)NC(=O)[C@H](Cc2ccccc2)N(C)C(=O)[C@H](C)N(C)C(=O)[C@H](CCCNC(=N)N)NC(=O)[C@H](Cc2ccc(-c3ccccc3)cc2)NC(=O)[C@H](C(C)C)NC(=O)[C@H](Cc2c[nH]c3ccccc23)NC(=O)[C@H](CC(=O)O)NC(=O)[C@H](Cc2ccc(OCC(=O)O)cc2)NC(=O)[C@H](Cc2ccc(C(=O)O)cc2)NC(=O)CSC[C@@H](C(=O)NCC(N)=O)NC(=O)[C@H](CO)NC(=O)[C@H](C(C)C)NC1=O [Example 1300] ({CH2CO}-[Phe(4-COOH)]Y(Carboxymethyl)DWV[Bip]R[NMeA][NMeF]RLVSCG-NH2; thioether N-14)
150	CC(C)C[C@@H]1NC(=O)[C@H](CCCNC(=N)N)NC(=O)[C@H](Cc2ccccc2)N(C)C(=O)[C@H](C)N(C)C(=O)[C@H](CCCNC(=N)N)NC(=O)[C@H](Cc2ccc(-c3ccccc3)cc2)NC(=O)[C@H](C(C)C)NC(=O)[C@H](Cc2c[nH]c3ccccc23)NC(=O)[C@H](CC(=O)O)NC(=O)[C@H](Cc2ccc(O)cc2)NC(=O)[C@H](CC(N)=O)NC(=O)CSC[C@@H](C(=O)N[C@@H](C)C(N)=O)NC(=O)[C@H](CO)NC(=O)[C@H](C(C)C)NC1=O [Example 1301] ({CH2CO}-NYDWV[Bip]R[NMeA][NMeF]RLVSCA-NH2; thioether N-14)
